Bounds are passed on as bounds.

For one data set, the system named is PRAS40 (T246). The data set is described as follows: Phospho-PRAS40 (T246) in PC-3 cell lysates, MSD (Compound 2). The format is cell-based. Particulars: Homo sapiens; PC-3, 1 hour; read-out: mTORC2 PRAS40 (T246) IC50. The method, then:
The direct substrate for mTORC1 was 4E-BP1(T46) and the indirect downstream substrate was S6RP (S235/S236). The direct substrate for mTORC2 was AKT (S473) and the indirect downstream substrates measured were GSK3β(S9) and PRAS40 (T246). Additionally, the phosphorylation status of AKT (T308), a phosphorylation site for PDK1, was monitored. Concentration-response curves were plotted and IC50 values determined. Cells were plated in 96-well flat bottom plates at the required density (PC-3 cells/well) and the cells were allowed to equilibrate at 37° C., 5% CO2 overnight. […] After the incubation period, the culture media was removed carefully with an aspirator. The plate was placed on ice and 50 μL of 1× Tris Lysis Buffer was added to each well. The plate was placed on a shaker at 4° C. for 1 hour to lyse the cells. At that point, the plate was either frozen at -80° C. for later analysis or immediately assayed for phosphoproteins as described below. To monitor interassay variability, a reference standard was included in the assay for PC-3 cells and the coefficient of variation for assay of […]) was 9.3% (n=50) and for assay of p-AKT (S473) was 28.6% (n=50). The assay plate was incubated with 150 μL of MSD Blocking Buffer for 1 hour with shaking at room temperature. […] Then 150 μL of 1×MSD Read Buffer T was added to each well. The plate was read on the SECTOR Imager plate reader.

In the next data set the test system is DNA-PKcs. The data set is described as follows: Total DNA-PKcs immunohistochemistry in PC3 tumors (Compound 2). In kind it is in vivo, SCID mice. Conditions: 5 mg/kg QD for 6 days, 2 hours after the last dose.
The next data set has as its system PRAS40(T246). The experiment in a line: Phospho-PRAS40(T246) in PC3 cell lysates, Luminex multiplex. In kind it is cell-based, human. Particulars: PC3, 1 hour exposure; read-out: p-PRAS40 (T246) IC50. From the text: The direct substrate for TORC1 was 4E-BP 1(T46) and indirect downstream substrate was S6RP(S235/S236). The direct substrate for TORC2 was Akt(S473) and indirect downstream substrates measured were GSK3β(S9) and PRAS40(T246). Additionally, the phosphorylation status of Akt(T308), a phosphorylation site for PDK1 was monitored.
The multiplex Luminex assay format differs from conventional enzyme-linked immunosorbent assay (ELISA) in that the multiplex capture antibody is attached to a polystyrene bead whereas the ELISA capture antibody is attached to the microplate well. The use of the suspension bead-based technology enables the multiplexing capabilities of the Luminex assays. The xMAP® technology uses 5.6 micron polystyrene microspheres, which are internally dyed with red and infrared fluorophores of differing intensities. Each bead is given a unique number, or bead region, allowing differentiation of one bead from another. Beads covalently bound to different specific antibodies can be mixed in the same assay, utilizing a 96-well microplate format. At the completion of the sandwich immunoassay, beads can be read, using the Luminex 100™ or Luminex 200 detection system, in single-file by dual lasers for classification and quantification of each analyte. […]

The nature of data set [1]: 5-day tolerability study of Compound 1 in PC3 tumor-bearing mice (body weight). The format is in vivo, SCID mice. The method, then:
Plasma and tumor samples were collected 24 hours after the last dose in each dose group.
Mice were monitored daily for clinical signs and body weight changes. At the end of the study, mice were euthanized and plasma and tumor samples were collected for PK/PD determination. PD markers, pS6 and pAkt, were measured using MSD technology.
Initial body weights were recorded prior to the initiation of treatment using a digital scale. The percent body weight change during the course of the study was calculated using initial body weight measurements. Body weights of each animal were measured twice a week at the same time that tumor measurements were taken. Body weights were measured more frequently if significant decreases were noted during the course of the study.
In preparation for xenograft studies, a 5-day tolerability study was performed. […] The animals in the 50 mg/kg dose group lost >17% of the starting body weight by Day 5 (24 hours after the 4th dose). The animals in this group were euthanized. By Day 6 (24 hours after the 5th dose), the animals in the 25 mg/kg and 10 mg/kg groups lost 9% and 4%, respectively, of the starting body weight.

On to `CCN1C(=O)CNc2ncc(-c3ccc(-c4nc[nH]n4)nc3C)nc21` [Compound 2, 1-ethyl-7-(2-methyl-6-(1H-1,2,4-triazol-3-yl)pyridin-3-yl)-3,4-dihydropyrazino[2,3-b]pyrazin-2(1H)-one], for which the IC50 in the data set on PRAS40 (T246) is 49 nM. For the same compound, in the data set with DNA-PKcs, the “positive threshold area stained for DNA-PKcs vs vehicle” value is “no significant difference”.
In the case of `CO[C@H]1CC[C@H](N2C(=O)CNc3ncc(-c4ccc(C(C)(C)O)nc4)nc32)CC1` [Compound 1, 7-(6-(2-hydroxypropan-2-yl)pyridin-3-yl)-1-((1r,4r)-4-methoxycyclohexyl)-3,4-dihydropyrazino-[2,3-b]pyrazin-2(1H)-one], in the data set on PRAS40(T246), the IC50 was determined as 140 nM. The “loss of starting body weight” value is listed as 4% in data set [1] (10 mg/kg QD oral, Day 6 (24 hours after the 5th dose)); 9% in data set [1] (25 mg/kg QD oral, Day 6 (24 hours after the 5th dose)); over 17% in data set [1] (50 mg/kg QD oral, Day 5 (24 hours after the 4th dose)).

The term IC50 denotes the point on the concentration scale where inhibition reaches its midpoint.

Values taken from US20140113904A1, “TREATMENT OF CANCER WITH TOR KINASE INHIBITORS” (SIGNAL PHARMACEUTICALS, LLC, priority 2012, published 2014).
